Laboratory results: patent US9624243B2, “Heterocyclic compounds and methods of their use” (Novartis AG, priority 2012, dated 2017)

Key:
AT2 receptor = AT2 receptor (Homo sapiens (Human), UniProt P50052); test: AT2 Receptor Binding; settings: HEK293 AT2 receptor transient cell membranes, [125I]-CGP42112A
Experimental: 1. Trypsin-EDTA (for Preparation of 100 mL)
• Dissolve trypsin in 2% EDTA and PBS completely; sterilize the solution by passing through a […] membrane filter; store at 4° C.
2. DMEM Medium (for Preparation of 1 L) • The powder was dissolved into 950 mL of distilled water with gentle stirring until the solution becomes clear. • Add. NaHCO3 1.176 g for DMEM medium. • Adjust pH of medium to 0.2˜0.3 below final working pH using 1 M NaOH or 1 M • HCl. Add slowly with stirring. • Dilute to 1 liter with ddH2O. • Sterilize the medium immediately by filtration. • Store at 4° C.
3. TE Buffer • 20 mM Tris-HCl, pH 7.4, • 5 mM EDTA
4. Binding Assay Buffer • 50 mM Hepes, pH 7.4 • 5 mM MgCl2 • 1 mM CaCl2 • 0.2% BSA
5. Wash Buffer • 50 mM Hepes, pH 7.4 Procedures for HEK293AT2 Receptor Transient Cell Transfection • Cells were plated into 150 mm dish at 50% density for transient transfection. Cells were ready for transfection after overnight incubation (the confluence reaches around 80%). • 75 μL Lipofectamine™2000 diluted in 6.25 mL OptiMEM I Reduced Serum Medium, was mixed gently, and incubated at room temperature for 5 minutes. 50 μg expression plasmid DNA diluted in 6.25 mL OptiMEM I Reduced Serum Medium without serum was mixed gently. • After the 5 minute incubation, the diluted DNA was combined with the diluted Lipofectamine™2000 (total volume is 12.5 mL). The mixture was mixed gently and incubated for 30 minutes at room temperature to allow the DNA-Lipofectamine™2000 complexes to form. • The 12.5 mL DNA-Lipofectamine™2000 complexes were added into the 150 mm dish and mixed gently by rocking the dish back and forth. • The cells were incubated at 37° C. with 5% CO2 for 48 hours. Cells were collected and stored frozen at −80° C. Procedures for HEK293AT2 Receptor Cell Membrane Preparation • Frozen HEK293AT2 receptor (transient transfected) cells were homogenized in ice cold TE buffer for 10s. • The homogenate was centrifuged at 25,000 g for 30 minutes. • The pellet was resuspended in ice cold tissue buffer. • Protein concentrations were determined using Bradford assay method with BSA as standard. • The membrane protein was frozen under −80° C. Compound Preparation
Solutions of all compounds were prepared bymicroplate liquid handling equipment such as Janus or Precision 2000. Compounds, dissolved in DMSO were stored in a Freezer. Compounds were prepared from 30 mM in 100% DMSO.
Step 1: Dose Plate Preparation (96 Well Plate)
• Add the 3 μL [30 mM] compound stock to column 1 on the plate. • Add 15 μL of 100% DMSO to column 1. • Add 10.81 μL of 100% DMSO to column 2-12. • Transfer 5 μL from column 1 into column 2 (half log dilution). • Transfer 5 μL from column 2 into column 3 (half log dilution). • Transfer 5 μL from column 3 into column 4 (half log dilution). • Transfer 5 μL from column 4 into column 5 (half log dilution). • Transfer 5 μL from column 5 into column 6 (half log dilution). • Transfer 5 μL from column 6 into column 7 (half log dilution). • Transfer 5 μL from column 7 into column 8 (half log dilution). • Transfer 5 μL from column 8 into column 9 (half log dilution). • Transfer 5 μL from column 9 into column 10 (half log dilution) • Transfer 5 μL from column 10 into column 11 (half log dilution) • Transfer 5 μL from column 11 into column 12 (half log dilution).
All the compounds were diluted using Precision 2000 microplate liquid handling equipment. The top concentration of compound was 5 mM with 100% DMSO.
Step 2: Working Plate Preparation (96 Well Plate)
• Compounds were diluted 50-fold with buffer. • 49 μL buffer was added to the well of 96 well plate. • 1 μL compound solution from dose plate was transferred to the corresponding well of working plate. • The top concentration of compound was 100 μM with 2% DMSO. Step 3: Assay Plate Preparation (96 Well Plate)
15 μL of compound solution was transferred from each well of working plate to the well of assay plate by Janus.

NG108-15 neurite cells = test: AT2 Receptor Neurite Outgrowth Assay; format: cell-based; settings: NG108-15 cells, in the presence of angiotensin II 0.1 μM, compound 0.003-10 μM
Experimental: The general methodology of Wallinder (2008) and references cited therein was used to assess the effect of the compounds of the present invention on neurite outgrowth. The assay was adapted for high content screening.
EMA1087 is a known AT2 receptor agonist described as “compound 21” in Wan et al. 2004. PD-123,319 is a known, commercially available AT2 receptor antagonist. The results were analyzed by immunofluorescence quantitative analysis. Neurite outgrowth was quantified with neurite average length using Cellomics software. Results are expressed as the mean±SEM, each conducted in triplicate. Statistical significance, compared with Ang II control: *p<0.05, **p<0.01, and ***p<0.001. NS: no significant difference. ND: not determined. FIGS. 1 to 5 show neurite outgrowth was inhibited by the AT2 receptor antagonists, PD-126,055 and compounds 6, 15, 21 and 28.

AT1 receptor = AT1 receptor (Homo sapiens (Human), UniProt P30556); test: AT1 Receptor Binding; settings: HEK293/AT1 receptor transient cell membranes, [125I]-Sar1-Ile8-Angiotensin II; top concentration tested 10 μM
Text: The same media, solutions, cell procedures and compound preparation was used as for Biological Example 1 but using HEK293/AT1 Receptor Transient Cells.

AT1 receptor, sequence (P30556 whole entry, species assumed): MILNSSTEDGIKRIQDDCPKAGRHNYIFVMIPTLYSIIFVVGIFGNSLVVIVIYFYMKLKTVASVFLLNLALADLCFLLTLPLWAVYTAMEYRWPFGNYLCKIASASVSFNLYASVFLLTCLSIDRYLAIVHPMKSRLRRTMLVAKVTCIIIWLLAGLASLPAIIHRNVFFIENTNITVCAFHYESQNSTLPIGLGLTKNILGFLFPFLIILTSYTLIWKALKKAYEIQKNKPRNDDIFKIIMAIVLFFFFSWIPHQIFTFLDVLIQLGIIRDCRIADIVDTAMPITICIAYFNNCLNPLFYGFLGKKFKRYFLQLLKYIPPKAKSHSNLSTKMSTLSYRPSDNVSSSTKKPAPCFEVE
AT2 receptor, sequence (P50052 whole entry, species assumed): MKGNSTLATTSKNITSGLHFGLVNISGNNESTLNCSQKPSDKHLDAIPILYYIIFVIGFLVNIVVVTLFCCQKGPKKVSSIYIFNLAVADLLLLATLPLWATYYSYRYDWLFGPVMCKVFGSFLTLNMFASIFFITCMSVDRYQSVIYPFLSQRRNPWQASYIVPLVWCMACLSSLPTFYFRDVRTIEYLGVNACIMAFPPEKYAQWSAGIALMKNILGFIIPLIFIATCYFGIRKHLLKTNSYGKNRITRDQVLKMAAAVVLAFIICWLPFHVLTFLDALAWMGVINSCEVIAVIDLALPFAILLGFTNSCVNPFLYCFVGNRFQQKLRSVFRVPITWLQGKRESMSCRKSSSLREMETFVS

IC50 (AT2 receptor) [nM]	SMILES	neurite outgrowth (neurite average length) (NG108-15 neurite cells)	IC50 (AT1 receptor) [nM]	Ki (AT1 receptor) [nM]
86.9	O=C(O)[C@@H]1C[C@H](N2CCOC[C@@H]2Cc2ccccc2)CN1C(=O)C(c1ccccc1)c1ccccc1 [Compound 28, (2S,4S)-4-((S)-3-benzylmorpholino)-1-(2,2-diphenylacetyl)pyrrolidine-2-carboxylic acid]	inhibited	–	–
–	COc1ccc2c(c1OCc1ccccc1)C[C@@H](C(=O)O)N(C(=O)C(c1ccccc1)c1ccccc1)C2 [PD-126,055, reference compound]	inhibited	> 10000	> 10000
58.8	O=C(O)[C@@H]1C[C@H](N2CCC[C@H](c3ccccc3)C2)CN1C(=O)C(c1ccccc1)c1ccccc1 [Compound 49, (2S,4S)-1-(2,2-diphenylacetyl)-4-((R)-3-phenylpiperidin-1-yl)pyrrolidine-2-carboxylic acid]	–	–	–
3050	O=C(O)[C@@H]1C[C@H](CS(=O)(=O)CCc2ccccc2)CN1C(=O)C(c1ccccc1)c1ccccc1 [Compound 58, (2S,S)-1-(2,2-diphenylacetyl)-4-((phenethylsulfonyl)methyl)pyrrolidine-2-carboxylic acid]	–	–	–
461	O=C(O)[C@@H]1C[C@H](c2sccc2-c2ccccc2)CN1C(=O)C(c1ccccc1)c1ccccc1 [Compound 107, (2S,4S)-1-(2,2-diphenylacetyl)-4-(3-phenylthiophen-2-yl)-pyrrolidine-2-carboxylic acid]	–	–	–
1320	O=C(O)[C@@H]1C[C@H](OCCCc2ccc(F)cc2)CN1C(=O)C(c1ccccc1)c1ccccc1 [Compound 104, (2S,4S)-1-(2,2-diphenylacetyl)-4-(3-(4-fluorophenyl)-propoxy)pyrrolidine-2-carboxylic acid]	–	–	–
6650	O=C(O)[C@@H]1C[C@H](OC[C@@H]2C[C@H]2c2ccccc2)CN1C(=O)C(c1ccccc1)c1ccccc1 (mixture of isomers) [Compound 16, (2S,4S)-1-(2,2-diphenylacetyl)-4-(((1R,2R)-2-phenylcyclopropyl)methoxy)pyrrolidine-2-carboxylic acid and (2S,4S)-1-(2,2-diphenylacetyl)-4-(((1S,2S)-2-phenylcyclopropyl)methoxy)pyrrolidine-2-carboxylic acid]	–	–	–
2260	O=C(O)[C@@H]1C[C@H](NCCc2ccccc2)CN1C(=O)C(c1ccccc1)c1ccccc1 [Compound 46, (2S,4S)-1-(2,2-diphenylacetyl)-4-(phenethylamino)-pyrrolidine-2-carboxylic acid]	–	–	–
49.1	O=C(O)[C@@H]1C[C@H](N2CCCCC2Cc2ccccc2)CN1C(=O)C(c1ccccc1)c1ccccc1 (single isomer, unassigned) [Compound 70-A]	–	–	–
400	O=C(O)[C@@H]1C[C@H](n2nncc2Cc2ccccc2)CN1C(=O)C(c1ccccc1)c1ccccc1 [Compound 101, (2S,4S)-4-(5-benzyl-1H-1,2,3-triazol-1-yl)-1-(2,2-diphenylacetyl)pyrrolidine-2-carboxylic acid]	–	–	–
363	O=C(O)[C@@H]1C[C@H](SCCCc2ccccc2)CN1C(=O)C(c1ccccc1)c1ccccc1 [Compound 124, (2S,4S)-1-(2,2-diphenylacetyl)-4-((3-phenylpropyl)thio)-pyrrolidine-2-carboxylic acid]	–	–	–
536	CS(=O)(=O)N(CCCc1ccccc1)[C@H]1C[C@@H](C(=O)O)N(C(=O)C(c2ccccc2)c2ccccc2)C1 [Compound 99, (2S,4S)-1-(2,2-diphenylacetyl)-4-(N-(3-phenylpropyl)-methylsulfonamido)pyrrolidine-2-carboxylic acid]	–	–	–

SMILES	IC50 (AT2 receptor) [nM]	neurite outgrowth (neurite average length) (NG108-15 neurite cells)	IC50 (AT1 receptor) [nM]	Ki (AT1 receptor) [nM]
CN(CCCc1ccccc1)[C@H]1C[C@@H](C(=O)O)N(C(=O)C(c2ccccc2)c2ccccc2)C1 [Compound 21, (2S,4S)-1-(2,2-diphenylacetyl)-4-(methyl(3-phenylpropyl)amino)pyrrolidine-2-carboxylic acid]	62.1	inhibited	> 10000	> 10000
